In the NIST ThermoML archive (doi:10.1016/j.jct.2005.07.009):
± gives the expanded uncertainty stated by the source.

Key:
[1] = 295.15 K; 101.33 kPa; Liquid; Vibrating tube method
[2] = refractive index (Na D-line) (dimensionless); conditions: 298.15 K; 101.33 kPa; Liquid; Standard Abbe refractometry
[3] = excess molar enthalpy (molar enthalpy of mixing); xn = mol fraction of the nth substance listed; conditions: 298.15 K, 101 kPa, Liquid
[4] = xn = mol fraction of the nth substance listed; conditions: 298.15 K, 101 kPa, Liquid, Vibrating tube method

BrCCCCBr [1,4-dibromobutane]
Conditions | mass density [kg/m3] | refractive index
[1] | 1819.44 ± 1 | –
[2] | – | 1.5163 ± 0.0008

BrCCCBr [1,3-dibromopropane]
Conditions | mass density [kg/m3] | refractive index
[1] | 1970.25 ± 1.1 | –
[2] | – | 1.5204 ± 0.0008

BrCCBr [1,2-dibromoethane]
Conditions | mass density [kg/m3] | refractive index
[1] | 2168.3 ± 1.3 | –
[2] | – | 1.5357 ± 0.0008

BrCCCCCCBr [1,6-dibromohexane] + CCOC=O
Conditions | excess molar enthalpy [kcal/mol] | mass density [kg/m3]
[3], x2 = 0.1027 | 0.00447 ± 0.000454 | –
[3], x2 = 0.2124 | 0.127 ± 0.00335 | –
[3], x2 = 0.3116 | 0.161 ± 0.00406 | –
[3], x2 = 0.4024 | 0.181 ± 0.00454 | –
[3], x2 = 0.4766 | 0.19 ± 0.00478 | –
[3], x2 = 0.547 | 0.19 ± 0.00478 | –
[3], x2 = 0.6032 | 0.183 ± 0.00478 | –
[3], x2 = 0.6673 | 0.169 ± 0.0043 | –
[3], x2 = 0.7137 | 0.154 ± 0.00406 | –
[3], x2 = 0.7608 | 0.136 ± 0.00359 | –
[3], x2 = 0.8062 | 0.112 ± 0.00287 | –
[3], x2 = 0.852 | 0.0893 ± 0.00239 | –
[3], x2 = 0.8953 | 0.0643 ± 0.00179 | –
[3], x2 = 0.9357 | 0.0394 ± 0.0012 | –
[3], x2 = 0.9691 | 0.0193 ± 0.000741 | –
[4], x2 = 0.1144 | – | 1557.48 ± 2.6
[4], x2 = 0.2023 | – | 1519.96 ± 2.7
[4], x2 = 0.2923 | – | 1477.74 ± 2.8
[4], x2 = 0.3593 | – | 1443.52 ± 2.8
[4], x2 = 0.5084 | – | 1357.33 ± 2.9
[4], x2 = 0.571 | – | 1316.38 ± 2.9
[4], x2 = 0.6288 | – | 1275.6 ± 2.9
[4], x2 = 0.6788 | – | 1237.72 ± 2.8
[4], x2 = 0.7728 | – | 1159.02 ± 2.8
[4], x2 = 0.8233 | – | 1112.18 ± 2.7
[4], x2 = 0.8545 | – | 1081.46 ± 2.7
[4], x2 = 0.9003 | – | 1033.41 ± 2.6

BrCCCCBr [1,4-dibromobutane] + CCOC(C)=O
Conditions | excess molar enthalpy [kcal/mol] | mass density [kg/m3]
[3], x2 = 0.0724 | 0.0259 ± 0.000884 | –
[3], x2 = 0.1477 | 0.0417 ± 0.00124 | –
[3], x2 = 0.2228 | 0.0516 ± 0.00148 | –
[3], x2 = 0.2954 | 0.0559 ± 0.0016 | –
[3], x2 = 0.3654 | 0.0562 ± 0.0016 | –
[3], x2 = 0.4273 | 0.0538 ± 0.00153 | –
[3], x2 = 0.4836 | 0.0497 ± 0.00143 | –
[3], x2 = 0.5346 | 0.0447 ± 0.00131 | –
[3], x2 = 0.5727 | 0.0394 ± 0.0012 | –
[3], x2 = 0.6226 | 0.0329 ± 0.00105 | –
[3], x2 = 0.6702 | 0.0265 ± 0.000884 | –
[3], x2 = 0.7257 | 0.0205 ± 0.000765 | –
[3], x2 = 0.7826 | 0.0143 ± 0.000621 | –
[3], x2 = 0.8416 | 0.00927 ± 0.000526 | –
[3], x2 = 0.8982 | 0.00521 ± 0.000454 | –
[3], x2 = 0.9516 | 0.00241 ± 0.00043 | –
[4], x2 = 0.0713 | – | 1763.64 ± 1.2
[4], x2 = 0.1362 | – | 1711.83 ± 1.4
[4], x2 = 0.2057 | – | 1654.85 ± 1.6
[4], x2 = 0.2657 | – | 1604.71 ± 1.7
[4], x2 = 0.3922 | – | 1495.44 ± 2
[4], x2 = 0.4539 | – | 1440.32 ± 2.1
[4], x2 = 0.5154 | – | 1384.15 ± 2.2
[4], x2 = 0.5749 | – | 1328.61 ± 2.3
[4], x2 = 0.683 | – | 1224.74 ± 2.4
[4], x2 = 0.7406 | – | 1167.52 ± 2.4
[4], x2 = 0.7867 | – | 1121.03 ± 2.4
[4], x2 = 0.8486 | – | 1057.13 ± 2.4
[4], x2 = 0.9 | – | 1002.89 ± 2.4
[4], x2 = 0.9494 | – | 949.81 ± 2.4

BrCCCCBr [1,4-dibromobutane] + CCCCC(=O)OCC
Conditions | excess molar enthalpy [kcal/mol] | mass density [kg/m3]
[3], x2 = 0.0901 | 0.0101 ± 0.000526 | –
[3], x2 = 0.1832 | 0.0134 ± 0.000598 | –
[3], x2 = 0.2717 | 0.0117 ± 0.00055 | –
[3], x2 = 0.3528 | 0.00638 ± 0.000478 | –
[3], x2 = 0.4123 | -0.00198 ± 0.000406 | –
[3], x2 = 0.4598 | -0.00851 ± 0.000502 | –
[3], x2 = 0.4897 | -0.0118 ± 0.000574 | –
[3], x2 = 0.5049 | -0.0126 ± 0.000574 | –
[3], x2 = 0.5621 | -0.0171 ± 0.000669 | –
[3], x2 = 0.6266 | -0.0197 ± 0.000741 | –
[3], x2 = 0.6967 | -0.0208 ± 0.000765 | –
[3], x2 = 0.7722 | -0.0197 ± 0.000741 | –
[3], x2 = 0.852 | -0.016 ± 0.000645 | –
[3], x2 = 0.9288 | -0.00963 ± 0.000526 | –
[4], x2 = 0.0539 | – | 1762.5 ± 1.2
[4], x2 = 0.109 | – | 1704.93 ± 1.3
[4], x2 = 0.2129 | – | 1598.64 ± 1.6
[4], x2 = 0.2678 | – | 1543.48 ± 1.7
[4], x2 = 0.3262 | – | 1485.57 ± 1.8
[4], x2 = 0.3815 | – | 1431.53 ± 1.9
[4], x2 = 0.469 | – | 1347.31 ± 2.1
[4], x2 = 0.5155 | – | 1303.25 ± 2.1
[4], x2 = 0.554 | – | 1267.17 ± 2.1
[4], x2 = 0.6207 | – | 1205.19 ± 2.2
[4], x2 = 0.7373 | – | 1099.12 ± 2.3
[4], x2 = 0.8643 | – | 986.49 ± 2.3
[4], x2 = 0.9324 | – | 927.28 ± 2.3

BrCCCCCCBr [1,6-dibromohexane]
Conditions | mass density [kg/m3] | refractive index
[1] | 1601.8 ± 2.5 | –
[2] | – | 1.506 ± 0.0009

BrCCCBr [1,3-dibromopropane] + CCCC(=O)OCC
Conditions | excess molar enthalpy [kcal/mol] | mass density [kg/m3]
[3], x2 = 0.0406 | 0.00528 ± 0.000454 | –
[3], x2 = 0.0875 | 0.0082 ± 0.000502 | –
[3], x2 = 0.142 | 0.00906 ± 0.000502 | –
[3], x2 = 0.1949 | 0.00832 ± 0.000502 | –
[3], x2 = 0.2497 | 0.00576 ± 0.000454 | –
[3], x2 = 0.3027 | 0.00174 ± 0.000406 | –
[3], x2 = 0.3525 | -0.00265 ± 0.000406 | –
[3], x2 = 0.4005 | -0.00731 ± 0.000478 | –
[3], x2 = 0.4399 | -0.0109 ± 0.00055 | –
[3], x2 = 0.4453 | -0.0114 ± 0.00055 | –
[3], x2 = 0.4914 | -0.0149 ± 0.000621 | –
[3], x2 = 0.5444 | -0.0171 ± 0.000669 | –
[3], x2 = 0.6028 | -0.0185 ± 0.000717 | –
[3], x2 = 0.6668 | -0.019 ± 0.000717 | –
[3], x2 = 0.7369 | -0.0185 ± 0.000717 | –
[3], x2 = 0.8067 | -0.0161 ± 0.000669 | –
[3], x2 = 0.8771 | -0.0119 ± 0.000574 | –
[4], x2 = 0.0436 | – | 1908.9 ± 1.2
[4], x2 = 0.0835 | – | 1854.01 ± 1.3
[4], x2 = 0.1381 | – | 1781.05 ± 1.4
[4], x2 = 0.1859 | – | 1719.07 ± 1.6
[4], x2 = 0.2926 | – | 1586.65 ± 1.8
[4], x2 = 0.4637 | – | 1389.88 ± 2
[4], x2 = 0.5238 | – | 1324.96 ± 2.1
[4], x2 = 0.6494 | – | 1195.57 ± 2.2
[4], x2 = 0.7131 | – | 1133.02 ± 2.3
[4], x2 = 0.7811 | – | 1068.34 ± 2.3
[4], x2 = 0.852 | – | 1003.1 ± 2.3
[4], x2 = 0.9215 | – | 941.15 ± 2.3

BrCCBr [1,2-dibromoethane] + CCOC=O
Conditions | excess molar enthalpy [kcal/mol] | mass density [kg/m3]
[3], x2 = 0.0568 | 0.0286 ± 0.000932 | –
[3], x2 = 0.1289 | 0.0522 ± 0.00151 | –
[3], x2 = 0.1965 | 0.0704 ± 0.00194 | –
[3], x2 = 0.2654 | 0.0861 ± 0.00232 | –
[3], x2 = 0.3304 | 0.0957 ± 0.00263 | –
[3], x2 = 0.3922 | 0.0993 ± 0.00263 | –
[3], x2 = 0.4464 | 0.0988 ± 0.00263 | –
[3], x2 = 0.497 | 0.0966 ± 0.00263 | –
[3], x2 = 0.5357 | 0.0939 ± 0.00263 | –
[3], x2 = 0.5433 | 0.0896 ± 0.00239 | –
[3], x2 = 0.5813 | 0.0887 ± 0.00239 | –
[3], x2 = 0.5831 | 0.0816 ± 0.00222 | –
[3], x2 = 0.6341 | 0.0816 ± 0.00222 | –
[3], x2 = 0.6895 | 0.0722 ± 0.00198 | –
[3], x2 = 0.7525 | 0.0596 ± 0.00167 | –
[3], x2 = 0.8186 | 0.0457 ± 0.00134 | –
[3], x2 = 0.8841 | 0.0318 ± 0.00103 | –
[3], x2 = 0.9442 | 0.016 ± 0.000669 | –
[4], x2 = 0.062 | – | 2094.82 ± 1.5
[4], x2 = 0.1228 | – | 2022.36 ± 1.6
[4], x2 = 0.1867 | – | 1945.54 ± 1.8
[4], x2 = 0.2494 | – | 1869.83 ± 2
[4], x2 = 0.3088 | – | 1797.46 ± 2.1
[4], x2 = 0.366 | – | 1727.27 ± 2.3
[4], x2 = 0.4251 | – | 1654.13 ± 2.4
[4], x2 = 0.4893 | – | 1574.29 ± 2.5
[4], x2 = 0.5444 | – | 1505.3 ± 2.5
[4], x2 = 0.6044 | – | 1429.44 ± 2.6
[4], x2 = 0.6588 | – | 1360.3 ± 2.6
[4], x2 = 0.7175 | – | 1285.15 ± 2.6
[4], x2 = 0.8304 | – | 1138.86 ± 2.6
[4], x2 = 0.8871 | – | 1064.61 ± 2.5
[4], x2 = 0.9405 | – | 994.23 ± 2.5
